Reference: US11419335B2, “N-arylated analogues and uses thereof” (University of Florida Research Foundation, Incorporated, priority 2016, dated 2022)
Read-outs that look alike come from different tables or passages of the source. Marks after values point to notes of the source that are not given here.

Columns and labels:
[1] = tested on: Acinetobacter baumannii (ATCC 1794); experiment: MIC broth microdilution, A. baumannii 1794; type: cell-based; conditions: for MIC A. baumannii 1794: Table 1A, in µM; for MIC A. bau. 1794: Table 4
Summary of the method: (§1)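 Values are lowest no-growth concentrations after 16–18 h at 37° C in Luria Broth, inoculum ~10^5 log-phase cells, eleven two-fold dilutions spanning 0.10–100 μM, OD600 used to confirm. DMSO, top 1% v/v, served as vehicle and negative control.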

[2] = tested on: human red blood cells (hRBC); experiment: Hemolysis of red blood cells; type: cell-based
Summary of the method: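 hRBCs (2% suspension) exposed to compounds at 0.2–200 μM (ten-point dose-response) for 1 h at 37 °C; after centrifugation, haemoglobin release read as supernatant OD at 405 nm. DMSO set as 0% and Triton X as 100% haemolysis; HC50 from dose-response curves, three independent experiments.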

[3] = tested on: MRSA-1 (clinical isolate); experiment: MIC broth microdilution, MRSA-1; type: cell-based, Staphylococcus aureus
Method: (§2) The minimum inhibitory concentration (MIC) for each tested compound was determined by the broth microdilution method as recommended by the Clinical and Laboratory Standards Institute (CLSI). In a 96-well plate, eleven two-fold serial dilutions of each compound were made in a final volume of 100 μL Luria Broth. Each well was inoculated with ˜10^5 bacterial cells at the initial time of incubation, prepared from a fresh log phase culture (OD600 of 0.5 to 1.0 depending on bacterial strain). […] (MIC values were supported by spectrophotometric readings at OD600). DMSO served as our vehicle and negative control in each microdilution MIC assay. DMSO was serially diluted with a top concentration of 1% v/v.
(§3) Each well was inoculated with ˜10^5 bacterial cells at the initial time of incubation, prepared from a fresh log phase culture (OD600 of 0.5 to 1.0 depending on bacterial strain). […] The concentration range tested for each compound during this study was 0.10 to 100 μM. DMSO served as our vehicle and negative control in each microdilution MIC assay. DMSO was serially diluted with a top concentration of 1% v/v. All MIC values were obtained from a minimum of three independent experiments.

[4] = tested on: SA-156 (clinical isolate); experiment: MIC broth microdilution, SA-156; type: cell-based, Staphylococcus aureus
Method: as §2, §3

[5] = tested on: SA-138 (clinical isolate); experiment: MIC broth microdilution, SA-138; type: cell-based, Staphylococcus aureus
Method: as §2, §3

[6] = tested on: methicillin-resistant Staphylococcus aureus MRSA-2 (clinical isolate); experiment: MIC broth microdilution, MRSA-2; type: cell-based; conditions: for MRSA-2 MIC: Table 2A; for MIC: read-out: MIC MRSA-2
Summary of the method: as §1

[7] = tested on: Pseudomonas aeruginosa (PAO1); experiment: MIC broth microdilution, PAO1; type: cell-based
Summary of the method: as §1

[8] = tested on: methicillin-sensitive Staphylococcus aureus ATCC 29213; experiment: MIC broth microdilution, S. aureus 29213; type: cell-based
Summary of the method: (§4)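 Serial two-fold dilutions (0.10–100 μM) in LB, CLSI broth microdilution format. Inoculum: ~10^5 log-phase cells per well.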

MRSA BAA-1707 = experiment: MIC broth microdilution, MRSA BAA-1707; type: cell-based, Staphylococcus aureus; conditions: for MIC MRSA 1707: Table 4
Summary of the method: as §4

[9] = tested on: SA-129 (clinical isolate); experiment: MIC broth microdilution, SA-129; type: cell-based, Staphylococcus aureus
Method: as §2, §3

[10] = tested on: vancomycin-resistant Enterococcus faecium (VRE strain ATCC 700221); experiment: MIC broth microdilution, VRE 700221; type: cell-based; conditions: for MIC E. faecium VRE 700221: Table 1A
Summary of the method: as §1

[11] = tested on: SA-147 (clinical isolate); experiment: MIC broth microdilution, SA-147; type: cell-based, Staphylococcus aureus
Method: as §2, §3

MRSA BAA-44 = experiment: MIC broth microdilution, MRSA BAA-44; type: cell-based, Staphylococcus aureus
Method: as §2, §3

[12] = tested on: methicillin-resistant Staphylococcus epidermidis (MRSE strain ATCC 35984); experiment: MIC broth microdilution, MRSE 35984; type: cell-based; conditions: for MIC S. epidermidis MRSE 35984: Table 1A
Summary of the method: as §1

Question: Which results are given for `CCCCCCCCCCCCCCCCn1cc[n+](Cc2cccc(F)c2)c1C.[Br-]` [Compound 18]?
Answer: MIC A. baumannii 1794 [1]: 25; MIC A. bau. 1794 [1]: 25 µM; HC50 ([2]; Table 1A): 16.7 µM; RBC HC50 ([2]; Table 4, concentration required to lyse 50% of red blood cells): 16.7 µM; MIC ([3]; Table 1B): 3.13 µM; MIC ([3]; Table 3): 3.13 µM; MIC ([4]; Table 1B): 3.13 µM; MIC ([4]; Table 3): 3.13 µM; MIC ([5]; Table 1B): 3.13 µM; MIC ([5]; Table 3): 3.13 µM; MIC MRSA-2 ([6]; Table 1A): 2.35^a; MIC MRSA-2 ([6]; Table 1B): 2.35^a μM; MRSA-2 MIC [6]: 2.35^a μM; MIC MRSA-2 ([6]; Table 3): 2.35^a μM; MIC MRSA-2 ([6]; Table 4): 2.35a micromolar; MIC PAO1 ([7]; Table 1A): > 100 µM; MIC PAO1 ([7]; Table 4): >100 µM; MIC S. aureus 29213 ([8]; Table 1B): 4.69^a μM; MIC S. aureus 29213 ([8]; Table 3): 4.69^a μM; MIC (MRSA BAA-1707; Table 1B, read-out: MIC MRSA BAA-1707): 1.56 µM; MIC (MRSA BAA-1707; Table 2A, read-out: MRSA BAA-1707 MIC): 1.56 µM; MIC (MRSA BAA-1707; Table 3, read-out: MIC MRSA BAA-1707): 1.56 µM; MIC MRSA 1707 (MRSA BAA-1707): 1.56 µM; MIC ([9]; Table 1B): 3.13 µM; MIC ([9]; Table 3): 3.13 µM; MIC E. faecium VRE 700221 [10]: 1.56 µM; VRE MIC ([10]; Table 2A): 1.56 µM; MIC VRE 700221 ([10]; Table 4): 1.56 µM; MIC SA-147 ([11]; Table 1B): 2.35^a μM; MIC SA-147 ([11]; Table 3): 2.35^a μM; MIC MRSA BAA-44 (MRSA BAA-44; Table 1B): 2.35^a μM; MIC MRSA BAA-44 (MRSA BAA-44; Table 3): 2.35^a μM; MIC S. epidermidis MRSE 35984 [12]: 1.17^a; MRSE 35984 MIC ([12]; Table 2A): 1.17^a μM; MIC MRSE 35984 ([12]; Table 4): 1.17a micromolar

Question: Which “MIC A. bau. 1794” value [1] does the source give for `CCCCCCCCCCCCCCCC[N+](C)(C)Cc1ccccc1.[Cl-]` [BAC-16, reference compound] here?
Answer: 6.25 µM

Question: And the “RBC HC50” value [2]?
Answer: 21.8 µM

Question: And the “MIC MRSA-2” value ([6]; Table 4)?
Answer: 1.56 µM

Question: And the “MIC PAO1” value ([7]; Table 4)?
Answer: >100 µM

Question: And the “MIC MRSA 1707” value (MRSA BAA-1707)?
Answer: 1.56 µM

Question: And the “MIC VRE 700221” value ([10]; Table 4)?
Answer: 3.13 µM

Question: And the “MIC MRSE 35984” value ([12]; Table 4)?
Answer: 1.56 µM

Question: Which results are given for `CCCCCCCCCCCC[N+](C)(C)CC[N+](C)(C)CC[N+](C)(C)CCCCCCCCCCCC` [QAC-10, reference compound]?
Answer: MIC against multidrug-resistant A. baumannii [1]: 6.25 µM; MIC ([1]; Table 1, read-out: MIC A. baumannii 1794): 6.25 µM; MIC A. baumannii 1794 [1]: 6.25; MIC A. bau. 1794 [1]: 6.25 µM; HC50 [2]: 7.92 µM; hemolytic activity [2]: potent hemolytic activities; MIC ([3]; Table 1B): 3.13 µM; MIC MRSA-1 ([3]; Table 3): 4.69^a μM; MIC SA-156 ([4]; Table 1B): 2.35^a μM; MIC SA-156 ([4]; Table 3): 2.35^a μM; MIC SA-138 ([5]; Table 1B): 2.35^a μM; MIC SA-138 ([5]; Table 3): 2.35^a μM; MIC ([6]; Table 1): 3.13 µM; MIC MRSA-2 ([6]; Table 1A): 3.13 µM; MIC MRSA-2 ([6]; Table 1B): 2.35^a μM; MRSA-2 MIC [6]: 2.35^a μM; MIC ([6]; Table 3): 3.13 µM; MIC MRSA-2 ([6]; Table 4): 3.13 µM; MIC against P. aeruginosa [7]: 9.38 µM; MIC PAO1 ([7]; Table 1): 9.38^a μM; MIC PAO1 ([7]; Table 1A): 9.38^a; MIC PAO1 ([7]; Table 4): 9.38a micromolar; MIC S. aureus 29213 ([8]; Table 1B): 4.69^a μM; MIC S. aureus 29213 ([8]; Table 3): 4.69^a μM; MIC SA-129 ([9]; Table 1B): 2.35^a μM; MIC SA-129 ([9]; Table 3): 2.35^a μM; MIC VRE 700221 ([10]; Table 1): 2.35^a μM; MIC E. faecium VRE 700221 [10]: 2.35^a; VRE 700221 MIC ([10]; Table 2): 2.35^a μM; MIC VRE 700221 ([10]; Table 4): 2.35a micromolar; MIC ([11]; Table 1B): 3.13 µM; MIC ([11]; Table 3): 3.13 µM; MIC MRSA BAA-44 (MRSA BAA-44; Table 1B): 2.35^a μM; MIC MRSA BAA-44 (MRSA BAA-44; Table 3): 2.35^a μM; MIC MRSE 35984 ([12]; Table 1): 2.35^a μM; MIC S. epidermidis MRSE 35984 [12]: 2.35^a; MRSE 35984 MIC ([12]; Table 2): 2.35^a μM; MRSE 35984 MIC ([12]; Table 2A): 2.35^a μM; MIC MRSE 35984 ([12]; Table 4): 2.35a micromolar
